Like-named read-outs stand apart in the source and are kept apart here.
Experiments:
HeLa cells [1] = experiment: Cell death determination by flow cytometry (Hoechst 33342 / PI); format: cell-based; settings: MNNG 50 μM 15 min, with or without 100 μM inhibitor pretreatment, 24 h
[2] = Solubility observation in the MST experiment; format: physicochemical; settings: at concentrations higher than 1000 μM, PBS-T with 5% DMSO
Description: (§1) A microscale thermophoresis (MST) assay was performed to confirm the binding of 6y to MIF. […] Overall, we concluded that 6y binds reversibly to an allosteric binding site that affects MIF tautomerase activity.

HeLa cells [3] = experiment: Cell morphology after MNNG treatment; format: cell-based; settings: pretreatment with 6y, dose- and time-dependent
Source text: In addition, cellular morphology was investigated to see if the MIF inhibitor 6y restores the original phenotype.

MIF [4] = target: T1, MIF (Homo sapiens, UniProt P14174); experiment: Enzyme kinetics of MIF-catalyzed PP conversion (Michaelis-Menten, Lineweaver-Burk); format: biochemical; settings: for Vmax: 35 nM MIF
T1 construct: made in house; host or cells: Escherichia coli BL21, pET-20b(p) plasmid
T1 sequence (P14174 2-115 limits assumed): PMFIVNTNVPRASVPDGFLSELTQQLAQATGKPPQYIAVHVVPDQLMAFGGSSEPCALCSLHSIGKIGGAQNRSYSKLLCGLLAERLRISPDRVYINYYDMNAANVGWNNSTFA
Description: Enzyme kinetics experiments were performed to determine the mode of MIF inhibition by 6y (SI, Table S1). The rate of MIF-catalyzed PP conversion was measured at concentrations ranging from 0 to 10 mM in the absence or presence of various inhibitor concentrations (0, 1.4 μM, 2.1 μM, or 2.8 μM).
Toward this aim, 10 μL of the inhibitors was added to 190 μL of the enzyme solution and incubated for 10 min. Then, 50 μL of these solutions was mixed with 50 μL of the solutions of the substrate with different concentrations. The reactions were measured by the increase in UV absorbance at 300 nm, and the data from the first 3 min were used to calculate the initial velocities. The negative control (no MIF) was subtracted from all of the data, and the curves were fitted using nonlinear regression, Michaelis–Menten, and linear regression, Lineweaver–Burk. Vmax was defined as the maximum velocity as extrapolated by the curve fit. The Km of PP was defined as the concentration of PP at which 50% of maximum velocity was reached. The data were analyzed using GraphPad Prism 8.
1. Supporting figures and tables
Figure S1. Michaelis-Menten plot of MIF inhibition by 6y at the concentrations 0, 1.4, 2.1 and 2.8 µM.
Table S1. Kinetic parameters of 6y measured at 35nM of MIF.
(1 picture or pasted object on this page, not shown here)

MIF [5] = target: T1, MIF; experiment: Microscale thermophoresis (MST) binding assay; settings: 25 °C, RED-tris-NTA labeled MIF
Description: as §1
MST experiments were performed on a Monolith NT.115 system (NanoTemper Technologies) using 100% LED and 60% IR-laser power. Laser on and off times were set at 30 and 5 s, respectively. A 100 nM dye solution RED-tris-NTA was prepared by mixing 2 μL of the dye (5 μM in DMSO) and 98 μL of PBS-T. The protein concentration was adjusted to 200 nM, and 100 μL of this solution was added to the tube with dye and incubated at rt for 30 min. Meanwhile, a twofold dilution series of compound 6y was prepared in PBS-T containing 5% DMSO. Subsequently, 10 μL of labeled MIF was mixed with 10 μL of the samples with 16 different concentrations of 6y ranging from 2000 to 0.06 μM. The samples were centrifuged for 10 min at rt and the supernatant was transferred into fresh tubes. After that, the standard treated capillaries (K002) were filled with the solutions and the MST curves were measured at 25 °C.

HeLa cells [6] = format: cell-based
HeLa cells [7] = experiment: Cell viability (MTS) assay, MNNG-induced parthanatos; format: cell-based; settings: 3 h pretreatment, MNNG 50 μM 15 min, 24 h, MTS, read-out: EC50, protection from MNNG-induced parthanatos
MIF/AIF binding = target: T2, MIF/AIF binding (Homo sapiens, UniProt P14174); experiment: MIF/AIF binding ELISA; settings: MIF-coated plate, his-tagged AIF 4 μM
T2 construct: host or cells: Escherichia coli BL21 (MIF)
T2 sequence (P14174 2-115 limits assumed): T1 sequence (P14174 2-115 limits assumed)
Description: Next, we investigated the mechanism by which 6y protects genome DNA. Considering that […] is a crucial step in parthanatos, we tested if 6y interferes with MIF/AIF binding in vitro. […] Under control conditions, MIF and AIF are mainly located in the cytosol. […] Human recombinant untagged MIF was diluted in the binding buffer (Tris-HCl 100 mM, 5 mM MgCl2, 150 mM NaCl, pH 8.5) to a final concentration of 250 nM. 100 μL of MIF solution was used to coat each well of a high-binding 96-well plate overnight at 4 °C. […] After 2 h incubation, the plate was washed three times with washing buffer and incubated with anti-poly-Histidine–peroxidase antibody (Sigma, Amsterdam, the Netherlands) for 30 min. After washing, 100 μL of mixed HRP substrate reagent (R&D Systems, Minneapolis) was added, and the colorizing reaction was stopped by adding 100 μL of 1N sulfuric acid. The absorbance at 450 nm was determined with the correction at […] via a Synergy H1 plate reader.

MIF [8] = target: T1, MIF; experiment: Jump dilution assay (reversibility of binding); format: biochemical; settings: 25 μM 6y, 10 min preincubation, 20-fold dilution, 20 min
Description: To investigate the reversibility of binding, we performed the activity recovery experiment based on pre-incubation of MIF with the inhibitor at saturated concentration followed by jump dilution. The experiment aimed to study the reversibility of the MIF complex with 6y; thus, MIF was preincubated with 25 μM 6y for 10 min before 20-fold dilution and then tested for residual enzyme activity. After 20 min of residence time, MIF tautomerase activity recovered comparably to that expected for instantaneously reversible inhibitors (Figure 4b).
The solution of the enzyme (1.4 μM) was preincubated with a saturating concentration of inhibitor 6y (25 μM) for 10 min. Then, the enzyme–inhibitor mixture was diluted 20-fold with boric acid buffer, then 50 μL of the mixture was mixed with 50 μL of 2 mM PP solution in ammonium acetate buffer, and recovery of the activity was measured over 20 min. In the control groups, no enzyme/inhibitor was added.

SMILES: O=C(Nc1ccccc1)c1ccc(-n2cc(C(=O)NCc3cccs3)nn2)cc1 [Compound 6y, 1-(4-(Phenylcarbamoyl)phenyl)-N-(thiophen-2-ylmethyl)-1H-1,2,3-triazole-4-carboxamide]
- Cells stained by PI (HeLa cells [1]): 20%
- Solubility [2]: limited solubility
- Restoration of original cell phenotype after MNNG (HeLa cells [3]): mainly (but not completely) restored
- Vmax (MIF [4]; 1.4 μM 6y): 0.21±0.02 abs/min
- Vmax (MIF [4]; 2.1 µM 6y): 0.13±0.01 abs/min
- Vmax (MIF [4]; 2.8 μM 6y): 0.08±0.01 abs/min
- Mode of MIF inhibition (MIF [4]; Lineweaver-Burk plot, 0, 1.4, 2.1, 2.8 μM): noncompetitive
- Vmax at highest inhibitor concentration (MIF [4]; decreasing from 0.40 ± 0.03 (control)): 0.08 ± 0.01 absorbance/min
- Kd (MIF [5]): 95 µM
- MNNG-induced DNA damage (comet assay) (HeLa cells [6]; HeLa, 50 μM 6y 2 h, then 10 μM MNNG 2 h, alkaline conditions): inhibited
- Effect of compound alone on genome integrity (comet assay) (HeLa cells [6]; HeLa, without MNNG): did not affect genome integrity
- Genomic DNA fragmentation (gel electrophoresis) (HeLa cells [6]; pretreatment, dose and time-dependent): protective effect
- EC50 (HeLa cells [7]): ~8 µM
- EC50 (HeLa cells [7]; Homo sapiens): 7.7 ± 2.1 µM
- IC50 (MIF/AIF binding): 12.3 µM
- Reversibility of binding to MIF (MIF [8]): reversible

Reference: paper PMC10350922, “Allosteric Inhibitors of Macrophage Migration Inhibitory Factor (MIF) Interfere with Apoptosis-Inducing Factor (AIF) Co-Localization to Prevent Parthanatos” (Journal of Medicinal Chemistry, 2023)
